Results published in patent US20230277553A1, “THERAPEUTIC COMPOSITION OF CURE-PRO COMPOUNDS FOR TARGETED DEGRADATION OF BET DOMAIN PROTEINS, AND METHODS OF MAKING AND USAGE” (CORNELL UNIVERSITY, priority 2020, published 2023).
Entries after “also recorded” stand apart in the source; their conditions may differ. Residues, ends and D or L forms follow the SMILES beside them. *: point of attachment. Cbz = O=C(OCc1ccccc1)*

Experiments:
Type in all cases: cell-based
MV-4-11 cells = assay: CellTiter-Glo cell viability, MV-4-11 cells; settings: for Loss of cellular viability / toxicity, cotreated with cereblon ligands 8046, 8047 and 8066 vs monomers alone: MV-4-11, 72 hours, 1:1, 10 nM-100 μM each
Description: CellTiter-Glo® 2.0 Cell Viability Assay (Promega) was carried out following the manufacturer's recommendations. Cells were seeded at a density of 1000 cells/well in a white 96 well plates (Corning, #3917) in a total volume of 100 μl with respective monomers, combinations of BRD ligands together with E3 ligase ligands or vehicle control treatment. After a 72 h incubation, 100 ul of the CellTiter-Glo® substrate was added per well and luminescence was read on a Spectramax M5 (Molecular Devices). Dose-response curves were generated using Graphpad Prism software.
MV-4-11 cells (5×104) were treated for 24 hours with the sample compounds solubilized in DMSO. The compounds were added at 1 nM-100 μM each. Cellular viability was determined using the CellTiter-Glo® Luminescent Cell Viability Assay (Promega) described above. FIGS. 19-22 depict the CURE-PRO-mediated loss of cellular viability for BRD monomers (JQ1 derivatives comprising of catechol linkers), and CRBN ligand, 8049 (pomalidomide derivatives comprising boronic acid linkers) combined in a 1:1 ratio.
MV-4-11 cells (1×104) were treated for 72 hours with the compounds solubilized in DMSO. Compounds were added at 10 nM-100 μM each. Cellular viability was determined using the CellTiter-Glo® Luminescent Cell Viability Assay (Promega) described above. FIGS. 47-54 depict the CURE-PRO-mediated loss of cellular viability for BRD monomers (JQ1 derivatives comprising of boronic acid linkers), and CRBN ligands, 8046, 8047 and 8066 (pomalidomide derivatives comprising diol linkers) combined in a 1:1 ratio.

BRD4 [1] = biological target: T1, BRD4 (Homo sapiens, UniProt O60885); assay: CURE-PRO-mediated BRD4 degradation with VHL ligands, WES (ProteinSimple), MCF7 cells; parameters: endogenous in cells; settings: for Inhibition of BRD-E2 + 8305 mediated BRD4 degradation by proteasome inhibitor / Inhibition of BRD-E20 + 8305 mediated BRD4 degradation by proteasome inhibitor: MCF7, monomers 10 μM each, inhibitor 1 μM pre-incubation
Description: (§1) All cell lines were purchased from ATCC or DSMZ and grown at 37° C. with 5% CO2. Human HeLa cells were cultured in complete growth medium (Dulbecco's modified Eagle's medium (DMEM) supplemented with 10% FBS); MCF7 cells were cultured in complete growth medium (Dulbecco's modified Eagle's medium (DMEM) supplemented with 10% FBS and 0.01 mg/ml human recombinant insulin (Sigma Aldrich); Namalwa and MOLM-13 cells were cultured in complete growth medium (RPMI 1640 medium supplemented with 10% FBS); MV-4-11 were cultured in complete growth medium (Iscove's Modified Dulbecco's medium, supplemented with 10% FBS); HCT116 cells were cultured in complete growth medium (McCoy's 5a Medium supplemented with 10% FBS). For cellular degradation of BRD4 studies, cells were seeded in a 12-well plate at 70-80% confluency, allowed to attach overnight, and incubated with the indicated compounds for the indicated time. When indicated, a 15-minute pretreatment with 10 μM pomalidomide, 10 μM VHL298, 10 μM Nutlin3a, 1 μM MG-132 or 1 μM Carfilzomib was performed before the addition of CURE-PROs. For washout studies, after CURE-PRO treatment, media was aspirated and incubated with complete medium for the indicated time before lysis.
(§2) WES Simple analysis was performed on WES system (ProteinSimple-Biotechne) according to the manufacturer's instructions. Total protein concentrations of cell lysates were determined by the Pierce BCA kit (Thermo Fisher). 3 μL of 0.3 μg/μL of the protein lysate was loaded onto a 12- to 230-kDa WES assay plate (ProteinSimple) where 300 nL sample was withdrawn through a capillary, subjected to electrophoretic separation of proteins by size, and followed by the simultaneous, HRP-based detection of proteins using the Anti-Rabbit Detection Module (Proteinsimple: #DM-001). The electropherograms were checked then the automatic peak detection was manually corrected if it was required.
MCF7 cells (3×10^6) were treated for 4-24 hours continually (FIG. 72), or treated for 4h, washed and incubated for a further 4-24 h with the compounds solubilized in DMSO. Compounds were added at 10 μM each. Cells were washed, lysed, and clarified by centrifugation. The total protein concentration was quantified by the BCA method (ThermoFisher Sciences). Standardized protein samples were electrophoresed and imaged as described in the WES Proteinsimple section above. FIG. 69 depicts the CURE-PRO-mediated BRD4 degradation for the BRD-E50 monomer, and VHL ligand, 8305.
MCF7 cells (3×10^6) were treated for 24 hours with the compounds solubilized in DMSO. CURE-PRO monomers were added at 10 μM each and the proteasomal inhibitors at 1 μM. Standardized protein samples were electrophoresed and imaged as described in the WES Proteinsimple section above. FIGS. 73 and 75 depicts the dependence of the proteasome for CURE-PRO-mediated BRD4 degradation.
MCF7 cells (3×10^6) were treated for 24 hours with the compounds solubilized in DMSO. CURE-PRO monomers were added at 10 μM. FIG. 74 depicts the CURE-PRO-mediated BRD4 degradation for the BRD-E50 monomer, and VHL ligand, 8305 combined in a 1:1 ratio after 24 h.

BRD4 [2] = biological target: T1, BRD4; assay: CURE-PRO-mediated BRD4 degradation with MDM2 ligands, WES (ProteinSimple), HCT116 cells; parameters: endogenous in cells; settings: for Inhibition of BRD-N25 + 8310 mediated BRD4 degradation by proteasome inhibitor: HCT116, monomers 10 μM each, inhibitor 1 μM pre-incubation
Description: as §1, §2
HCT116 cells (3×10^6) were treated for 24 hours with the compounds solubilized in DMSO. Compounds were added at 1 μM-10 μM each. Standardized protein samples were electrophoresed and imaged as described in the WES ProteinSimple section above. FIGS. 59, 60, and 61 depict the concentration-dependence of CURE-PRO-mediated BRD4 degradation using MDM2 ligands.
HCT116 cells (3×10^6) were treated for 24 hours with the compounds solubilized in DMSO. Compounds were added at 1 μM-10 μM each. Standardized protein samples were electrophoresed and imaged as described in the WES ProteinSimple section above. FIGS. 62 and 63 depict the concentration-dependence of CURE-PRO-mediated BRD4 degradation using MDM2 ligands.
HCT116 cells (3×10^6) were treated for 24 hours with the compounds solubilized in DMSO. CURE-PRO monomers were added at 10 μM each and the proteasomal inhibitors at 1 μM. Standardized protein samples were electrophoresed and imaged as described in the WES ProteinSimple section above. FIG. 68 depicts the dependence of the proteasome for CURE-PRO-mediated BRD4 degradation.

BRD4 [3] = biological target: T1, BRD4; assay: Summary of BRD4 degradation by CURE-PRO pairs, estimated from Western Blot or WES (Proteinsimple); parameters: endogenous in cells; settings: Table 1
From the text: A black check mark indicates efficacy of 30% to 70% or higher protein degradation.

BRD4 [4] = biological target: T1, BRD4; assay: CURE-PRO-mediated BRD4 degradation, Western blot, HeLa cells; parameters: endogenous in cells; host or cells: HeLa; settings: 24 h, Western blot
Outline: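 HeLa cells treated 24 h with compounds in DMSO (1-10 μM, 10 μM or 100 μM each; paired monomers combined 1:1), optional 15-min pretreatment with pomalidomide, VHL298, Nutlin3a (10 μM) or MG-132/carfilzomib (1 μM). RIPA lysates, 10-20 μg protein immunoblotted for BRD4 with β-actin, ECL detection.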

With `O=C1CCC(N2C(=O)c3cccc(CNC(=O)c4cccc(B(O)O)c4)c3C2=O)C(=O)N1` (centres unmarked) [compound 8049] the “Loss of cellular viability, monomer alone” value (MV-4-11 cells; MV-4-11, 24 hours, 1 nM-100 μM) was “little loss of viability was observed”.

`CCNC(=O)C[C@@H]1N=C(c2ccc(Cl)cc2)c2cc(Sc3ccc(B(O)O)cc3)ccc2-n2c(C)nnc21` [BRD-E75, (4-(((4S)-6-(4-chlorophenyl)-4-(2-(ethylamino)-2-oxoethyl)-1-methyl-4H-benzo[f][1,2,4]triazolo[4,3-a][1,4]diazepin-8-yl)thio)phenyl)boronic acid] was tested, and the “Loss of cellular viability / toxicity, cotreated with cereblon ligands 8046, 8047 and 8066 vs monomers alone” value (MV-4-11 cells) was “reduced viability; also recorded: increased toxicity”.

In the case of `CC(C)C[C@@H](C=O)NC(=O)[C@H](CC(C)C)NC(=O)[C@H](CC(C)C)NC(=O)OCc1ccccc1` [MG-132] (Cbz-Leu-Leu-Leu-aldehyde), the “Inhibition of BRD-E2 + 8305 mediated BRD4 degradation by proteasome inhibitor” value (BRD4 [1]) is reported as “inhibited by the pre-incubation”, the “Inhibition of BRD-E20 + 8305 mediated BRD4 degradation by proteasome inhibitor” value (BRD4 [1]) is reported as “inhibited by the pre-incubation” and the “Inhibition of BRD-N25 + 8310 mediated BRD4 degradation by proteasome inhibitor” value (BRD4 [2]) is reported as “inhibited by the pre-incubation”.

`COc1ccc2c(c1)C(c1ccc(Cl)cc1)=N[C@@H](CC(=O)Nc1cccc(B(O)O)c1)c1nnc(C)n1-2` [BRD-E73, (3-(2-((4S)-6-(4-chlorophenyl)-8-methoxy-1-methyl-4H-benzo[f][1,2,4]triazolo[4,3-a][1,4]diazepin-4-yl)acetamido)phenyl)boronic acid] was tested, and the “Loss of cellular viability / toxicity, cotreated with cereblon ligands 8046, 8047 and 8066 vs monomers alone” value (MV-4-11 cells) was “reduced viability; also recorded: increased toxicity”.

For `CC(C)C[C@H](NC(=O)[C@H](CCc1ccccc1)NC(=O)CN1CCOCC1)C(=O)N[C@@H](Cc1ccccc1)C(=O)N[C@@H](CC(C)C)C(=O)[C@@]1(C)CO1` [Carfilzomib], the “Inhibition of BRD-E2 + 8305 mediated BRD4 degradation by proteasome inhibitor” value (BRD4 [1]) was “inhibited by the pre-incubation”, the “Inhibition of BRD-E20 + 8305 mediated BRD4 degradation by proteasome inhibitor” value (BRD4 [1]) was “inhibited by the pre-incubation” and the “Inhibition of BRD-N25 + 8310 mediated BRD4 degradation by proteasome inhibitor” value (BRD4 [2]) was “inhibited by the pre-incubation”.

For `Cc1ncsc1-c1ccc(CNC(=O)[C@@H]2C[C@@H](O)CN2C(=O)[C@@H](NC(=O)C2(C#N)CC2)C(C)(C)C)cc1` [VHL298], the “Inhibition of BRD-E50 + 8305 mediated BRD4 degradation by preincubation” value (BRD4 [1]; MCF7, equimolar final concentrations (10 μM)) was “attenuates CURE-PRO mediated BRD4 degradation; also recorded: inhibited CURE-PRO mediated degradation; also recorded: inhibits the degradation of BRD4”.

For `COc1ccc2c(c1)C(c1ccc(Cl)cc1)=N[C@@H](CC(=O)NCCCCCNC(=O)c1cccc(O)c1O)c1nnc(C)n1-2` [BRD-N8, N-(5-(2-((4S)-6-(4-chlorophenyl)-8-methoxy-1-methyl-4H-benzo[f][1,2,4]triazolo[4,3-a][1,4]diazepin-4-yl)acetamido)pentyl)-2,3-dihydroxybenzamide], the “Loss of cellular viability / toxicity, co-dosed with CRBN ligand 8049” value (MV-4-11 cells; MV-4-11, 24 hours, 1:1 with 8049, 1 nM-100 μM each) was “concentration-dependent loss in cellular viability; also recorded: increased toxicity”.

In the case of `CCNC(=O)C[C@@H]1N=C(c2ccc(Cl)cc2)c2cc(OCCCCCCNC(=O)c3ccc(B(O)O)cc3)ccc2-n2c(C)nnc21` [BRD-E79, (4-((6-(((4S)-6-(4-chlorophenyl)-4-(2-(ethylamino)-2-oxoethyl)-1-methyl-4H-benzo[f][1,2,4]triazolo[4,3-a][1,4]diazepin-8-yl)oxy)hexyl)carbamoyl)phenyl)boronic acid], the “Degradation of BRD4 in combination with CRBN ligand [drawing 371]” value (BRD4 [3]; CRBN ligand, second drawing (8047)) is reported as “✓ (A black check mark indicates efficacy of 30% to 70% or higher protein degradation)”, the “Degradation of BRD4 in combination with CRBN ligand [drawing 372]” value (BRD4 [3]; CRBN ligand, third drawing (8066)) is reported as “✓ (A black check mark indicates efficacy of 30% to 70% or higher protein degradation)” and the “Degradation of BRD4 in combination with CRBN ligand [drawing 370]” value (BRD4 [3]; aromatic 1,2-diol- or hindered cis-1,2-diol-containing CRBN ligand, first drawing (8046)) is reported as “✓ (A black check mark indicates efficacy of 30% to 70% or higher protein degradation)”. For the same molecule, the “BRD4 degradation, co-treatment with CRBN ligand 8046” value (BRD4 [4]; 1:1 with 8046, 10 μM each) was “causes degradation of BRD4; also recorded: Degradation is noted”, the “BRD4 degradation, co-treatment with CRBN ligand 8066” value (BRD4 [4]; 1:1 with 8066, 10 μM each (BRD-E10: 10 and 100 μM)) was “causes degradation of BRD4; also recorded: Degradation is noted” and the “BRD4 degradation, BRD ligand alone” value (BRD4 [4]; BRD monomer alone) was “no change in expression”. The “BRD4 degradation, in combination with MDM2 ligand 8313” value (BRD4 [2]; HCT116, 24 h, 1:1 with 8313, 1-10 μM each, WES) was “caused BRD4 protein degradation at 1 and 10 μM; also recorded: Degradation of BRD4 is observed” and the “BRD4 degradation, in combination with MDM2 ligand 8314” value (BRD4 [2]; HCT116, 24 h, 1:1 with 8314, 1-10 μM each, WES) was “no protein loss was observed”.

`Cc1ncsc1-c1ccc(CNC(=O)[C@@H]2C[C@@H](O)CN2C(=O)[C@@H](NC(=O)c2cccc(O)c2O)C(C)(C)C)cc1` [compound 8305, (2S,4R)-1-((S)-2-(2,3-dihydroxybenzamido)-3,3-dimethylbutanoyl)-4-hydroxy-N-(4-(4-methylthiazol-5-yl)benzyl)pyrrolidine-2-carboxamide] was tested, and the “BRD4 degradation, monomer alone (WES)” value (BRD4 [1]; MCF7, 10 μM) was “no degradation of BRD4”.
